Measured values reported in patent US11230543B2, “Biaryl monobactam compounds and methods of use thereof for the treatment of bacterial infections” (priority 2015, dated 2022).
Structures can show the parent of a compound that is named as a salt.

Key:
[1] = tested on: Klebsiella pneumoniae expressing KPC-1 (CL6569); test: Antibiotic activity: growth inhibitory concentration (OD600), Klebsiella pneumoniae CL6569; format: cell-based; conditions: lowest concentration inhibiting 95% of bacterial growth; in the presence of β lactamase inhibitor Relebactam 4 μg/mL; 35±2° C. for 22 hours; tested range 100 μM to 0.098 μM
Outline: (§1)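 Clinical strains at ~2×10^5 CFU/mL in cation-adjusted Mueller-Hinton II broth, with relebactam at 4 μg/mL final; compounds 100 μM to 0.098 μM final. After 22 hours at 35±2° C, OD600 read; MITC95 is lowest concentration giving 95% growth inhibition.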

[2] = tested on: Pseudomonas aeruginosa expressing AmpC (CL5701); test: Antibiotic activity: growth inhibitory concentration (OD600), Pseudomonas aeruginosa CL5701; format: cell-based; conditions: lowest concentration inhibiting 95% of bacterial growth; in the presence of β lactamase inhibitor Relebactam 4 μg/mL; 35±2° C. for 22 hours; tested range 100 μM to 0.098 μM
Outline: as §1

SMILES | KP_CL6569 MITC95 [1] [µM] | PA_CL5701 MITC95 [2] [µM]
CC1(C)[C@H](NC(=O)/C(=N\OCCOc2ccc(-c3cnn(CCCN)c3)cc2)c2csc(N)n2)C(=O)N1OS(=O)(=O)O [Example 5, (S,Z)-3-(2-((2-(4-(1-(3-aminopropyl)-1H-pyrazol-4-yl)phenoxy)ethoxy)imino)-2-(2-aminothiazol-4-yl)acetamido)-2,2-dimethyl-4-oxoazetidin-1-yl sulfate] | 6.25 | 50
CC1(C)[C@H](NC(=O)/C(=N\O[C@@](C)(COc2ccc(-n3cc[n+](CCCN)c3)nc2)C(=O)O)c2csc(N)n2)C(=O)N1OS(=O)(=O)[O-] [Example 113, (S)-3-((Z)-2-((((S)-1-((6-(3-(3-aminopropyl)-1H-imidazol-3-ium-1-yl)pyridin-3-yloxy)-2-carboxypropan-2-yl)oxy)imino)-2-(2-aminothiazol-4-yl)acetamido)-2,2-dimethyl-4-oxoazetidin-1-yl sulfate] | 0.7813 | 12.5
C[n+]1cc(-c2ccc(OC[C@H](O/N=C(\C(=O)N[C@@H]3C(=O)N(OS(=O)(=O)[O-])C3(C)C)c3csc(N)n3)C(=O)O)cc2)cnc1N(CCN)CC1CNC1 [Example 83, (S)-3-((Z)-2-(((S)-2-(4-(2-((2-aminoethyl)(azetidin-3-ylmethyl)amino)-1-methylpyrimidin-1-ium-5-yl)phenoxy)-1-carboxyethoxy)imino)-2-(2-aminothiazol-4-yl)acetamido)-2,2-dimethyl-4-oxoazetidin-1-yl sulfate] | 0.1953 | 1.563
CC1(C)[C@H](NC(=O)/C(=N\O[C@@H](COc2ccc(Nc3nccn3CCCN)nc2)C(=O)O)c2csc(N)n2)C(=O)N1OS(=O)(=O)O [Example 37A, 3-(2-((5-((S)-2-((((Z)-1-(2-aminothiazol-4-yl)-2-(((S)-2,2-dimethyl-4-oxo-1-(sulfooxy)azetidin-3-yl)amino)-2-oxoethylidene)amino)oxy)-2-carboxyethoxy)pyridin-2-yl)amino)-1H-imidazol-1-yl)propan-1-aminium 2,2,2-trifluoroacetate] | 0.78 | 3.13
CC1(C)[C@H](NC(=O)/C(=N\O[C@@H](COc2ccc(-c3cn(CCCN)[n+](CCN)c3)cc2)C(=O)O)c2csc(N)n2)C(=O)N1OS(=O)(=O)[O-] [Example 100, (S)-3-((Z)-2-(((S)-2-(4-(2-(2-aminoethyl)-1-(3-aminopropyl)-1H-pyrazol-2-ium-4-yl)phenoxy)-1-carboxyethoxy)imino)-2-(2-aminothiazol-4-yl)acetamido)-2,2-dimethyl-4-oxoazetidin-1-yl sulfate] | 0.39 | 3.125
CC1(C)[C@H](NC(=O)/C(=N\O[C@@H](COc2ccc([C@H]3CN=C(NCCN)N3)cc2)C(=O)O)c2csc(N)n2)C(=O)N1OS(=O)(=O)O [Example 58, (S)-3-(4-((S)-2-((2-aminoethyl)amino)-4,5-dihydro-1H-imidazol-4-yl)phenoxy)-2-((((Z)-1-(2-aminothiazol-4-yl)-2-(((S)-2,2-dimethyl-4-oxo-1-(sulfooxy)azetidin-3-yl)amino)-2-oxoethylidene)amino)oxy)propanoic acid] | 0.3906 | 3.125
C[n+]1cc(-c2ccc(OC[C@H](O/N=C(\C(=O)N[C@@H]3C(=O)N(OS(=O)(=O)O)C3(C)C)c3csc(N)n3)C(=O)O)cc2)ccc1CCCN [Example 88, (S)-3-((Z)-2-(((S)-2-(4-(6-(3-aminopropyl)-1-methylpyridin-1-ium-3-yl)phenoxy)-1-carboxyethoxy)imino)-2-(2-aminothiazol-4-yl)acetamido)-2,2-dimethyl-4-oxoazetidin-1-yl sulfate] | 0.3906 | 3.125
CC1(C)[C@H](NC(=O)/C(=N\O[C@@H](COc2ccc(-n3cc(CCCN)[n+](CC4(F)CNC4)c3)nc2)C(=O)O)c2csc(N)n2)C(=O)N1OS(=O)(=O)[O-] [Example 124, (S)-3-((Z)-2-(((S)-2-((6-(4-(3-aminopropyl)-3-((3-fluoroazetidin-3-yl)methyl)-1H-imidazol-3-ium-1-yl)pyridin-3-yl)oxy)-1-carboxyethoxy)imino)-2-(2-aminothiazol-4-yl)acetamido)-2,2-dimethyl-4-oxoazetidin-1-yl sulfate] | 0.7813 | 12.5
C[n+]1cc(-c2ccc(OC[C@H](O/N=C(/C(=O)N[C@@H]3C(=O)N(OS(=O)(=O)[O-])C3(C)C)c3csc(N)n3)C(=O)O)cc2)cn1CCCNC[C@H](O)CO [Example 101, (S)-3-((E)-2-(2-aminothiazol-4-yl)-2-(((S)-1-carboxy-2-(4-(1-(3-(((S)-2,3-dihydroxypropyl)amino)propyl)-2-methyl-1H-pyrazol-2-ium-4-yl)phenoxy)ethoxy)imino)acetamido)-2,2-dimethyl-4-oxoazetidin-1-yl sulfate] | 0.7813 | 12.5
C[n+]1nc(-c2ccc(OC[C@H](O/N=C(\C(=O)N[C@@H]3C(=O)N(OS(=O)(=O)[O-])C3(C)C)c3csc(N)n3)C(=O)O)cc2)ccc1NCCCN [Example 123, (S)-3-((Z)-2-(((S)-2-(4-(6-((3-aminopropyl)amino)-1-methylpyridazin-1-ium-3-yl)phenoxy)-1-carboxyethoxy)imino)-2-(2-aminothiazol-4-yl)acetamido)-2,2-dimethyl-4-oxoazetidin-1-yl sulfate] | 0.3906 | 12.5
Cn1c(-c2ccc(OC[C@H](O/N=C(\C(=O)N[C@@H]3C(=O)N(OS(=O)(=O)O)C3(C)C)c3csc(N)n3)C(=O)O)cc2)cn(CCCN)c1=N.O=C(O)C(F)(F)F [Example 32, 3-(4-(4-((S)-2-((((Z)-1-(2-aminothiazol-4-yl)-2-(((S)-2,2-dimethyl-4-oxo-1-(sulfooxy)-azetidin-3-yl)amino)-2-oxoethylidene)amino)oxy)-2-carboxyethoxy)phenyl)-2-imino-3-methyl-2,3-dihydro-1H-imidazol-1-yl)propan-1-aminium 2,2,2-trifluoroacetate] | 0.1953 | 3.125
C[n+]1cc(-c2ccc(OCC(C)(O/N=C(\C(=O)N[C@@H]3C(=O)N(OS(=O)(=O)O)C3(C)C)c3nc(N)sc3Cl)C(=O)O)cc2)cn1CCCN (stereo in doubt) [Example 51A, (S)-3-((Z)-2-(2-Amino-5-chlorothiazol-4-yl)-2-((((R)-1-(4-(1-(3-aminopropyl)-2-methyl-1H-pyrazol-2-ium-4-yl)phenoxy)-2-carboxypropan-2-yl)oxy)imino)acetamido)-2,2-dimethyl-4-oxoazetidin-1-yl sulfate] | 0.7813 | 3.125
C[n+]1cc(-c2ccc(OC[C@H](O/N=C(\C(=O)N[C@@H]3C(=O)N(OS(=O)(=O)[O-])C3(C)C)c3csc(N)n3)C(=O)O)cc2)ccc1NCCN [Example 66, (S)-3-((Z)-2-(((S)-2-(4-(6-((2-aminoethyl)amino)-1-methylpyridin-1-ium-3-yl)phenoxy)-1-carboxyethoxy)imino)-2-(2-aminothiazol-4-yl)acetamido)-2,2-dimethyl-4-oxoazetidin-1-yl sulfate] | 0.2135 | 1.708
